For series [1] the following is noted: 7 days.
Procedure: (§1) 1.5 g of a cosmetic solvent (Capric/Caprylic Triglyceride (Mygliol 318) and C12-15 Alkylbenzoate (Finsolv TN)) is saturated with the respective Benzotriazol-derivative by adding 0.2 g portions while stirring at room temperature. The saturated solution is stirred for 7 days at room temperature. 1 ml of the supernatant is centrifuged and filtered in order to obtain a clear solution. The concentration of the Benzotriazol-derivative is determined by means of HPLC.
A short description of series [2]: Determination of the solubility in cosmetic solvents. The note with it: saturated solution stirred 7 days at room temperature, HPLC; for solubility Finsolv TN: C12-15 Alkylbenzoate; for solubility Myritol 318: Capric/Caprylic Triglyceride.
Procedure: as §1

Read-outs that look alike come from different tables or passages of the source.

As to `CCCCC(CC)COCc1cc(C)cc(-n2nc3ccccc3n2)c1O` (stereo not drawn) [Example 2, 2-(2H-Benzotriazol-2-yl)-6-(2-ethylhexyloxymethyl)-4-methyl-phenol], in series [1], the “solubility Finsolv TN” value was found to be 64% and the “solubility Myritol 318” value was 66%.

For `Cc1cc(COCCC(C)C)c(O)c(-n2nc3ccccc3n2)c1` [Example 6, 2-(2H-Benzotriazol-2-yl)-6-(3-methyl-butoxymethyl)-4-methyl-phenol], in series [2], the “solubility Finsolv TN” value was 37% and the “solubility Myritol 318” value is 36%.

As for `CCCCC(CC)C(=O)OCc1cc(C)cc(-n2nc3ccccc3n2)c1O` (stereo not drawn) [Example 8, 2-Ethyl-hexanoic acid 3-(2H-benzotriazol-2-yl)-2-hydroxy-5-methyl-benzyl ester], in series [2], the “solubility Finsolv TN” value is recorded as 42% and the “solubility Myritol 318” value is recorded as 24%.

Take `Cc1cc(COC(=O)CC(C)C)c(O)c(-n2nc3ccccc3n2)c1` [Example 9, 3-Methyl-butyric acid 3-(2H-benzotriazol-2-yl)-2-hydroxy-5-methyl-benzyl ester]: in series [2], the “solubility Finsolv TN” value was 8% and the “solubility Myritol 318” value is 6%.

As to `CCCCC(CC)COCc1cc(C)cc(-n2nc3ccc(Cl)cc3n2)c1O` (stereo not drawn) [Example 12, 2-(5-Chloro-benzotriazol-2-yl)-6-(2-ethylhexyloxymethyl)-4-methyl-phenol], in series [2], the “solubility Finsolv TN” value came out at 19% and the “solubility Myritol 318” value is given as 12%.

Take `Cc1cc(CO)c(O)c(-n2nc3ccccc3n2)c1` [Example 14, 2-(2H-Benzotriazol-2-yl)-6-hydroxymethyl-4-methyl-phenol]: in series [2], the “solubility Finsolv TN” value was found to be 0.02% and the “solubility Myritol 318” value is reported as 0.01%.

For the origin of these results see patent US8883829B2, “2-phenyl-1,2,3-benzotriazoles for UV radiation absorbance” (DSM IP Assets B.V., priority 2010, dated 2014).
